Measured values: publication PMC5513037, “Examining the influence of specificity ligands and ATP-competitive ligands on the overall effectiveness of bivalent kinase inhibitors” (Proteome Science, 2017)

Tests used:
Experiment in all cases: KAM-matrix competition in K562 lysate;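 for 0.001 uM KAM: median log10 fold change of treatment over DMSO control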;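 for 0.01 uM KAM: median log10 fold change of treatment over DMSO control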;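 for 0.1 uM KAM: median log10 fold change of treatment over DMSO control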;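 for 1 uM KAM: median log10 fold change of treatment over DMSO control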;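 for 10 uM KAM: median log10 fold change of treatment over DMSO control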
Type in all cases: binding
[1] = target: T1, IRAK4 (Homo sapiens, UniProt Q9NWZ3)
T1 construct: endogenous in cells; host or cells: K562
T1 sequence (Q9NWZ3 1-460): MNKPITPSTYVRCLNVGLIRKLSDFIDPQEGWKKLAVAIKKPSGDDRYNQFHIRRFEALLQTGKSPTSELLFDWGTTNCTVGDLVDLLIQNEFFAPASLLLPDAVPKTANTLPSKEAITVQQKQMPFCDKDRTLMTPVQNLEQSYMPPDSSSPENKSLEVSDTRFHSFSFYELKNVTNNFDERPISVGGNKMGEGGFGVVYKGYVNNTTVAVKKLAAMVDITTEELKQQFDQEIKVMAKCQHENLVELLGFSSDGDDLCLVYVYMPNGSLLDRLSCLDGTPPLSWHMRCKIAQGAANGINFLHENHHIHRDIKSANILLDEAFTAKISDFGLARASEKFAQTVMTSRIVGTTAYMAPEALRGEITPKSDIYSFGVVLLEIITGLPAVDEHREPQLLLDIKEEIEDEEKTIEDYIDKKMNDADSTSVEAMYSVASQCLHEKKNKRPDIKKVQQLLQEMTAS
Method: (§1) Supplement 12953_2017_125_MOESM1_ESM.zip/MS_Supp Info.xlsx, sheet "KAM" | column: 10 uM KAM; 1 uM KAM; 0.1 uM KAM; 0.01 uM KAM; 0.001 uM KAM; RB50

[2] = target: T2, TTK (Homo sapiens, UniProt P33981);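 for 0.001 uM KAM: median log10 fold change of treatment over DMSO control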;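 for 0.01 uM KAM: median log10 fold change of treatment over DMSO control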;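 for 0.1 uM KAM: median log10 fold change of treatment over DMSO control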;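 for 1 uM KAM: median log10 fold change of treatment over DMSO control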;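 for 10 uM KAM: median log10 fold change of treatment over DMSO control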
T2 construct: endogenous in cells; host or cells: K562
T2 sequence (P33981 1-857): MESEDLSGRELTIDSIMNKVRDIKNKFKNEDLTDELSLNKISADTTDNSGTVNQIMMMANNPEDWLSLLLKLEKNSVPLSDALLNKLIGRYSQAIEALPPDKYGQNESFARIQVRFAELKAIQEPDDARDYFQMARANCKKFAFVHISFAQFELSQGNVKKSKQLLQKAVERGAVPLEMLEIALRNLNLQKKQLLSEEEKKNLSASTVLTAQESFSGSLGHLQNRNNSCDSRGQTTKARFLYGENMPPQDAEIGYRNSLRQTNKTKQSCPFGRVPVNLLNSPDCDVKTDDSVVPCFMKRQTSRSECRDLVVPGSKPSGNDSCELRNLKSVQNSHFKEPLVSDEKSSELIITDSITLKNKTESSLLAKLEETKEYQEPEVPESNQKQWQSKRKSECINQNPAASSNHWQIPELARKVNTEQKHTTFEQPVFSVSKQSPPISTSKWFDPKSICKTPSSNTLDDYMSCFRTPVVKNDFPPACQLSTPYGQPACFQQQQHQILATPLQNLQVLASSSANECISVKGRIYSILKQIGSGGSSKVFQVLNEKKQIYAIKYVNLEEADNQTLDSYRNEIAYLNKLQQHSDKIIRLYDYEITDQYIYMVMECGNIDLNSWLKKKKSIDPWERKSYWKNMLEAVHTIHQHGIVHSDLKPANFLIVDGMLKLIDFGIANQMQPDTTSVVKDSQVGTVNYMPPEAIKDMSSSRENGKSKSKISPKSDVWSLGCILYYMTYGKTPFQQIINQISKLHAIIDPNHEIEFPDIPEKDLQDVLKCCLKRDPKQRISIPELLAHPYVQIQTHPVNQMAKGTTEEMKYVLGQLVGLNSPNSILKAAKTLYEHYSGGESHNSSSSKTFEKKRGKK
Method: as §1

[3] = target: T3, UHMK1 (Homo sapiens, UniProt Q8TAS1);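 for 0.001 uM KAM: median log10 fold change of treatment over DMSO control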;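 for 0.01 uM KAM: median log10 fold change of treatment over DMSO control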;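 for 0.1 uM KAM: median log10 fold change of treatment over DMSO control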;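 for 1 uM KAM: median log10 fold change of treatment over DMSO control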;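 for 10 uM KAM: median log10 fold change of treatment over DMSO control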
T3 construct: endogenous in cells; host or cells: K562
T3 sequence (Q8TAS1 1-419): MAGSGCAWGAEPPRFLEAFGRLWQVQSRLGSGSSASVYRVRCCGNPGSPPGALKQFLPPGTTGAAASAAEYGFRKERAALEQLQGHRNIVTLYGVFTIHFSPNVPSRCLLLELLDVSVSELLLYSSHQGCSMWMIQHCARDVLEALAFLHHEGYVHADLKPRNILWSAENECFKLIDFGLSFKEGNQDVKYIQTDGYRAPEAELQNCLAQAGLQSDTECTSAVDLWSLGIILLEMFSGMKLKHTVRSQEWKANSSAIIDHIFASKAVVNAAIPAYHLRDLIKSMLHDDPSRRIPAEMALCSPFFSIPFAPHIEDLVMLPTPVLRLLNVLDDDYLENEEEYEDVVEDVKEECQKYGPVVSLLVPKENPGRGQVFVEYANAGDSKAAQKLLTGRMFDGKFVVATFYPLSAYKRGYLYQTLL
Method: as §1

[4] = KAM 0.001-10 uM, read-out: RB50 (the source's name)

N#CCc1ccc(Nc2nc(NCCCN)cc(Nc3cc(C4CC4)[nH]n3)n2)cc1 [KAM]
median Log10 fold change ([1]; 0.001 uM KAM): -0.01083
median Log10 fold change ([1]; 0.01 uM KAM): -0.003774
median Log10 fold change ([1]; 0.1 uM KAM): -0.1174
median Log10 fold change ([1]; 1 uM KAM): -0.3495
median Log10 fold change ([1]; 10 uM KAM): -0.4574
IC50 ([1]; read-out: RB50 (the source's name)): 0.922 µM
IC50 [2, 4]: > 10 µM
0.001 uM KAM ([2]; relative to 0 uM KAM = 0): -0.02414
0.01 uM KAM ([2]; relative to 0 uM KAM = 0): 0.009793
0.1 uM KAM ([2]; relative to 0 uM KAM = 0): -0.08807
1 uM KAM ([2]; relative to 0 uM KAM = 0): -0.1446
10 uM KAM ([2]; relative to 0 uM KAM = 0): -0.2103
IC50 [3, 4]: > 10 µM
0.001 uM KAM ([3]; relative to 0 uM KAM = 0): -0.05175
0.01 uM KAM ([3]; relative to 0 uM KAM = 0): -0.019
0.1 uM KAM ([3]; relative to 0 uM KAM = 0): 0.009765
1 uM KAM ([3]; relative to 0 uM KAM = 0): -0.08212
10 uM KAM ([3]; relative to 0 uM KAM = 0): -0.08774
